Reference: PubChem BioAssay (NCI)
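In this assay, cells in 96-well plates receive the compound at five concentrations for 48 hours. Endpoints are linearly interpolated between the surrounding concentrations. GI50 is the concentration that inhibits growth by half. TGI: total growth inhibition.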

Test system: MDA-MB-468 breast
Assay: growth of human tumour cells (NCI), 48 h

Row | Structure (SMILES) | GI50 | TGI
1 | CC(=O)Oc1ccccc1C(=O)NCCC[Se]C#N | 3190 nM | 15.6 µM
2 | C[C@@H]1CC[C@@H]2[C@@H]1[C@H](OC(=O)c1ccc3ccccc3c1)[C@]1(C3CCCCC3)C[C@@H](OC(=O)CO)[C@@]2(C)O1 | 10700 nM | 26.2 µM
3 | CC(=O)N1N=C(c2ccc(Nc3nc(Nc4ccc(F)cc4)nc(Nc4ccc(Cl)cc4)n3)cc2)CC1c1ccc(N(C)C)cc1 (stereo unspecified) | 5610 nM | 33.8 µM
4 | Cc1ccc(NC(=O)N2CCCCC2)cc1[N+](=O)[O-] | > 100000 nM | > 100 µM
5 | NC(=S)N/N=C/c1ccc(OC(=O)COc2ccccc2)cn1 | 2310 nM | 7.33 µM
6 | COc1ccc(C2CC(c3cccc(OC)c3)=NN2C(=O)c2cc(OC)c(OC)c(OC)c2)cc1 (stereo unspecified) | 484 nM | > 100 µM
7 | CCOc1ccc(NC(=O)c2cc3ccccc3cc2O)cc1 | 64600 nM | > 100 µM
8 | O=C(Nc1nc(-c2ccccc2)cs1)c1cc(O)c(O)c(O)c1 | 2460 nM | 12.7 µM
9 | CC(C)c1ccc(/C=N/N=C(N)N)cc1 | 1850 nM | 5.07 µM
10 | C=C1C(=O)O[C@H]2[C@H]1CC/C(COC(=O)C(=O)c1c[nH]c3ccc(Cl)cc13)=C\CC[C@@]1(C)O[C@@H]21 | 353 nM | 1.06 µM
11 | O=C(Nc1cc(C(F)(F)F)cc(C(F)(F)F)c1)Nc1ccc(OCc2nnc(-c3ccc(Cl)cc3)o2)c(F)c1 | 1000 nM | 4.17 µM
12 | Clc1ccc(N/N=C(\c2ccccc2)c2ccccn2)nc1 | 31.3 nM | 0.316 µM
13 | C#C[C@]1(O)CC[C@H]2[C@@H]3CC=C4c5sc(-c6ccc7c(c6)OCO7)nc5CC[C@]4(C)[C@H]3CC[C@@]21C | 2960 nM | 10 µM
14 | CC1=C/C(O)CC(=O)Cc2nc(co2)C(=O)N2CCC=C2C(=O)OC(C(C)C)C(C)/C=C\C(=O)NC/C=C\1 (stereo unspecified) | 11400 nM | 27.5 µM
15 | CCCCCCCCc1ccc(CCC(N)(CO)CO)cc1 | 1630 nM | 3.05 µM
16 | O=C(O)c1cc2cc(O)ccc2[nH]1 | > 100000 nM | > 100 µM
17 | O=C1c2ccccc2C(=O)c2sc(Nc3ccc(Cl)cc3)nc21 | 1980 nM | 4.68 µM
18 | O=C1Nc2ccc(CN3CCOC3=O)cc2/C1=C/c1cc(CN2CCOCC2)c[nH]1 | 20700 nM | 73.3 µM
19 | N=C1N=C(N)S/C1=C\c1ccc2ncccc2c1 | > 25000 nM | > 25 µM

Row | Structure (SMILES) | GI50 | TGI
20 | CC(=O)[O][Hg][CH2]C1(C)COC(C)([CH2][Hg][O]C(C)=O)CO1 (stereo unspecified) | 1970 nM | 4.12 µM
21 | CNC(C)[C@H]1CCC2C3CCC4C[C@@H](N(C)C(=O)c5ccccc5)CC[C@]4(C)C3CC[C@@]21C (stereo partly specified) | 854 nM | 2.72 µM
22 | Cc1nc2ccccc2c(/C=C/c2ccccc2)c1C(=O)/C=C/c1ccc(Cl)cc1 | 1560 nM | 3.15 µM
23 | CNC12C3C4C1C1C2C3C41C(=O)N[C@H](C(=O)N(C)[C@H](C[C@@H](OC(C)=O)c1nc(C(=O)N[C@@H](Cc2ccccc2)C[C@H](C)C(=O)OC)cs1)C(C)C)C1CC1 (stereo partly specified) | 70.5 nM | 1.37 µM
24 | COC(=O)c1ccc(NC(N)=NCC(C)(C)COc2ccc(C(F)(F)F)cc2)nc1 | 1060 nM | 2.73 µM
25 | OCc1ncc(-c2ccccc2)s1 | > 100000 nM | > 100 µM
26 | CN(C)c1cccc(/C=C(\C#N)c2ccccc2)c1 | 402 nM | 36.8 µM
27 | O=C(c1ccccc1)c1ccc(O)c2ncccc12 | 2410 nM | 7.75 µM
28 | Clc1ccc(-c2nc(C(Cl)Cl)nc3cc(-c4ccccc4)nn23)cc1 | 772 nM | 2.15 µM
29 | CCOC(=O)Nc1ccc(C(=O)/C=C/c2ccccc2)cc1 | 25200 nM | > 100 µM
30 | COc1cc2oc(-c3cccc(C(=O)Nc4ccc(C)cc4)c3)cc(=O)c2c(OC)c1OC | 3880 nM | 24.6 µM
31 | COc1ccc(Nc2ncc(-c3ccccc3)o2)cc1OC | > 11600 nM | > 25 µM
32 | O=C(NCCNC(=O)c1ccc(F)cc1)Nc1ccc(-n2cc(-c3ccncc3)c(-c3ccc(Cl)c(O)c3)n2)cc1 | 297 nM | 1.65 µM
33 | c1ccc2c(-c3cnn4cc(-c5ccc(N6CCNCC6)cc5)cnc34)ccnc2c1 | 335 nM | 1.54 µM
34 | C[n+]1cc2cc3c(cc2c2ccccc21)OCO3 | 503 nM | 3.45 µM
35 | C=C1[C@@H](O)C[C@H]2C(C)(C)C[C@H](Cl)C[C@]2(C)[C@H]1C[C@H](O)[C@H]1CC(=O)NC1=O | 13.8 nM | 0.124 µM
36 | N#CSCC1CC(O)(c2ccccc2)CC(c2ccc(Cl)cc2)O1 (stereo unspecified) | 5070 nM | 12.9 µM
37 | CC(=O)OC1CC2(O)C(CCC3(C)C(c4ccc(=O)oc4)CCC32O)C2(C)CCC(OC3OC(CO)C(O)C(O)C3O)C=C12 (stereo unspecified) | 61.1 nM | 0.338 µM
38 | NS(=O)(=O)c1cccc(Nc2nc(SCC(=O)c3ccc([N+](=O)[O-])cc3)nc3ccccc23)c1 | 15600 nM | 43.4 µM
